In ChEMBL document CHEMBL1201862, “PubChem BioAssay data set” (2004):
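48-hour exposure; five concentrations; linearly interpolated endpoints. GI50 is the concentration that inhibits growth by half.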 Calls of active or inactive are those of the source. Cut-off read from the data, not from the text of the source: active = GI50 up to about 1.1 µM and inactive = higher.

Key:
Assay in all cases: inhibition of tumour cell growth, NCI panel, 48 h
RPMI-8226 = system: RPMI-8226
A549 = system: A549
NCI-H23 = system: NCI-H23
MOLT-4 = system: MOLT-4
SW-620 = system: SW-620
UACC-257 = system: UACC-257
OVCAR-8 = system: OVCAR-8
CAKI-1 = system: CAKI-1
HL-60 = system: HL-60
COLO 205 = system: COLO 205
NCI-H226 = system: NCI-H226
UACC-62 = system: UACC-62
KM12 = system: KM12
HOP-62 = system: HOP-62
SF-268 = system: SF-268
SNB-19 = system: SNB-19

Measured: GI50

Cc1ccc(C(=O)O/N=C2/CCC/C2=C\c2ccccc2)cc1
inactive: RPMI-8226 > 100 µM | A549 > 100 µM | NCI-H23 > 100 µM | MOLT-4 > 100 µM | SW-620 > 100 µM | UACC-257 > 100 µM | OVCAR-8 > 100 µM | CAKI-1 > 100 µM | HL-60 > 100 µM | COLO 205 > 100 µM | NCI-H226 > 100 µM | UACC-62 > 100 µM | KM12 > 100 µM | HOP-62 > 100 µM | SF-268 29.1 µM

COc1ccc(/C=C/C(=O)c2sc(Nc3ccc([N+](=O)[O-])cc3)nc2C)cc1
inactive: RPMI-8226 19.3 µM | A549 33 µM | NCI-H23 26.5 µM | SNB-19 35.3 µM | MOLT-4 17.7 µM | SW-620 42.3 µM | OVCAR-8 39.1 µM | CAKI-1 40.2 µM | HL-60 21.2 µM | COLO 205 45.7 µM | UACC-62 29.9 µM | KM12 27.4 µM | HOP-62 64.1 µM | SF-268 34.8 µM

Cn1c(CBr)nc2c1C(=O)c1nc(CBr)[nH]c(=O)c1C2=O
inactive: RPMI-8226 53 µM | A549 > 100 µM | NCI-H23 > 100 µM | MOLT-4 > 100 µM | SW-620 > 100 µM | OVCAR-8 > 100 µM | CAKI-1 > 100 µM | COLO 205 > 100 µM | UACC-62 > 100 µM | SF-268 > 100 µM

C#CCN(N=O)C(=O)NCCCC(NC(C)=O)C(=O)NCc1ccccc1 (centres undefined)
inactive: RPMI-8226 15.9 µM | A549 > 100 µM | NCI-H23 > 100 µM | SNB-19 > 100 µM | MOLT-4 15.3 µM | SW-620 92.5 µM | UACC-257 > 100 µM | OVCAR-8 > 100 µM | CAKI-1 54.6 µM | COLO 205 66.4 µM | NCI-H226 > 100 µM | UACC-62 81.7 µM | KM12 > 100 µM | HOP-62 > 100 µM | SF-268 > 100 µM

OCC[N+]12CCCN1CCC2
inactive: A549 > 100 µM | NCI-H23 > 100 µM | SNB-19 > 100 µM | MOLT-4 > 100 µM | SW-620 > 100 µM | UACC-257 > 100 µM | OVCAR-8 > 100 µM | CAKI-1 > 100 µM | HL-60 > 100 µM | COLO 205 > 100 µM | NCI-H226 > 100 µM | UACC-62 > 100 µM | KM12 > 100 µM | HOP-62 > 100 µM | SF-268 > 100 µM

N#C/C(=C1\SC(/N=N/c2ccc(Cl)cc2)C(=O)N1c1ccccc1)c1nc2ccccc2[nH]1 (centres undefined)
inactive: A549 29.7 µM | NCI-H23 17.3 µM | SNB-19 30.1 µM | SW-620 98.6 µM | UACC-257 27.3 µM | OVCAR-8 54.2 µM | CAKI-1 48.4 µM | HL-60 45.6 µM | COLO 205 25.2 µM | NCI-H226 23.4 µM | UACC-62 31.4 µM | HOP-62 19.8 µM | SF-268 > 100 µM

COc1ccc(/C(=N/NC(=O)NN)C(c2ccc(OC)cc2)C2(O)CNc3c(Cl)cc(Cl)cc32)cc1 (centres undefined)
inactive: RPMI-8226 60.8 µM | A549 > 100 µM | NCI-H23 > 100 µM | SNB-19 > 100 µM | MOLT-4 44.7 µM | SW-620 > 100 µM | UACC-257 > 100 µM | OVCAR-8 > 100 µM | HL-60 > 100 µM | COLO 205 > 100 µM | NCI-H226 > 100 µM | UACC-62 99.1 µM | KM12 > 100 µM | HOP-62 > 100 µM | SF-268 > 100 µM

COc1cc2c(cc1C1=NC(C)(C)CO1)OCO2
inactive: RPMI-8226 > 100 µM | A549 > 100 µM | NCI-H23 > 100 µM | SNB-19 > 100 µM | MOLT-4 > 100 µM | SW-620 > 100 µM | UACC-257 > 100 µM | OVCAR-8 > 100 µM | CAKI-1 > 100 µM | HL-60 > 100 µM | COLO 205 > 100 µM | NCI-H226 > 100 µM | UACC-62 > 100 µM | KM12 > 100 µM | HOP-62 > 100 µM | SF-268 > 100 µM

CN(C)c1ccc(/C=c2\sc3nnc(-c4cccnc4)n3c2=O)cc1
inactive: RPMI-8226 > 100 µM | A549 > 100 µM | NCI-H23 > 100 µM | SNB-19 > 100 µM | MOLT-4 > 100 µM | SW-620 > 100 µM | UACC-257 > 100 µM | OVCAR-8 > 100 µM | CAKI-1 > 100 µM | HL-60 > 100 µM | COLO 205 > 100 µM | NCI-H226 > 100 µM | UACC-62 > 100 µM | KM12 > 100 µM | HOP-62 > 100 µM | SF-268 > 100 µM

CC(C)=CC(=O)c1c(C(=O)O)nc2ccccc2[n+]1[O-]
inactive: RPMI-8226 > 100 µM | A549 > 100 µM | NCI-H23 > 100 µM | SNB-19 > 100 µM | MOLT-4 > 100 µM | SW-620 > 100 µM | UACC-257 > 100 µM | CAKI-1 > 100 µM | HL-60 > 100 µM | COLO 205 > 100 µM | NCI-H226 > 100 µM | UACC-62 > 100 µM | KM12 > 100 µM | HOP-62 > 100 µM | SF-268 > 100 µM

COc1cccc(OC)c1/C=N\N1C(=O)c2ccccc2C1=O
inactive: RPMI-8226 28.2 µM | A549 > 100 µM | NCI-H23 38.5 µM | SNB-19 > 100 µM | MOLT-4 40.6 µM | SW-620 41.6 µM | UACC-257 > 100 µM | OVCAR-8 29.6 µM | CAKI-1 38.5 µM | HL-60 33.9 µM | NCI-H226 > 100 µM | UACC-62 34.6 µM | KM12 36.6 µM | HOP-62 > 100 µM | SF-268 37.8 µM

CSc1nc(NC2OCC(OC(C)=O)C(OC(C)=O)C2OC(C)=O)c(/N=C\C=N\c2c(NC3OCC(OC(C)=O)C(OC(C)=O)C3OC(C)=O)nc(SC)n(C)c2=O)c(=O)n1C (centres undefined)
inactive: RPMI-8226 > 100 µM | A549 > 100 µM | NCI-H23 > 100 µM | SNB-19 38.4 µM | SW-620 > 100 µM | UACC-257 > 100 µM | OVCAR-8 > 100 µM | HL-60 > 100 µM | COLO 205 > 100 µM | UACC-62 > 100 µM | KM12 > 100 µM | HOP-62 > 100 µM | SF-268 > 100 µM

C=CC[P@@]1(=O)O[C@H](c2ccccc2)C(C)N1C(C)C (some centres undefined)
inactive: RPMI-8226 > 100 µM | A549 > 100 µM | NCI-H23 > 100 µM | SNB-19 > 100 µM | MOLT-4 > 100 µM | SW-620 > 100 µM | OVCAR-8 > 100 µM | HL-60 > 100 µM | NCI-H226 > 100 µM | UACC-62 > 100 µM | KM12 > 100 µM | SF-268 > 100 µM

COc1cc(/C=C/c2ccc(OC(C)=O)cc2)cc(OC)c1OC
inactive: RPMI-8226 19.1 µM | A549 26.1 µM | SNB-19 34 µM | MOLT-4 16.7 µM | SW-620 43.5 µM | UACC-257 33.4 µM | OVCAR-8 31.2 µM | CAKI-1 27.9 µM | HL-60 12.4 µM | COLO 205 27.8 µM | NCI-H226 35.8 µM | UACC-62 15.4 µM | KM12 32 µM | HOP-62 45.7 µM | SF-268 32 µM
